# Patent publication US7491723B2, “Alkanol and cycloalkanol-amine derivatives and methods of their use” (Wyeth, priority 2003, dated 2009)
# Counter-ions that a name gives are not always drawn.
# Target: T1, human hNET (Homo sapiens, UniProt P23975)
# T1 construct: expressed in transfected cells
# Test: Norepinephrine (NE) uptake assay in MDCK-Net6 cells
# Assay type: cell-based
# Conditions: 1 μM test compound, [3H]NE uptake
# Procedure: MDCK-Net6 cells, stably transfected with human hNET (Pacholczyk, T., R. D. Blakely, and S. G. Amara, Nature, 1991, 350(6316): p. 350-4) were cultured in growth medium containing high glucose DMEM (Gibco, Cat. No. 11995), 10% FBS (dialyzed, heat-inactivated, US Bio-Technologies, Lot FBD1129HI) and 500 μg/ml G418 (Gibco, Cat. No. 10131). Cells were plated at 300,000/T75 flask and cells were split twice weekly. The JAR cell line (human placental choriocarcinoma) was purchased from ATCC (Cat. No. HTB-144). The cells were cultured in growth medium containing RPMI 1640 (Gibco, Cat. No. 72400), 10% FBS (Irvine, Cat. No. 3000), 1% sodium pyruvate (Gibco, Cat. No. 1136) and 0.25% glucose. Cells were plated at 250,000 cells/T75 flask and split twice weekly. For all assays, cells were plated in Wallac 96-well sterile plates (PerkinElmer, Cat. No. 3983498).
# On day 1, cells were plated at 3,000 cells/well in growth medium and maintained in a cell incubator (37° C., 5% CO2). On day 2, growth medium was replaced with 200 μl of assay buffer (25 mM HEPES; 120 mM NaCl; 5 mM KCl; 2.5 mM CaCl2; 1.2 mM MgSO4; 2 mg/ml glucose (pH 7.4, 37° C.)) containing 0.2 mg/ml ascorbic acid and 10 μM pargyline. Plates containing cells with 200 μl of assay buffer were equilibrated for 10 minutes at 37° C. prior to addition of compounds. A stock solution of desipramine was prepared in DMSO (10 mM) and delivered to triplicate wells containing cells for a final test concentration of 1 μM. Data from these wells were used to define non-specific NE uptake (minimum NE uptake). Test compounds were prepared in DMSO (10 mM) and diluted in assay buffer according to test range (1 to 10,000 nM). Twenty-five microliters of assay buffer (maximum NE uptake) or test compound were added directly to triplicate wells containing cells in 200 μl of assay buffer. The cells in assay buffer with test compounds were incubated for 20 minutes at 37° C. To initiate the NE uptake, [^3H]NE diluted in assay buffer (120 nM final assay concentration) was delivered in 25 μl aliquots to each well and the plates were incubated for 5 minutes (37° C.). The reaction was terminated by decanting the supernatant from the plate. The plates containing cells were washed twice with 200 μl assay buffer (37° C.) to remove free radioligand. The plates were then inverted, left to dry for 2 minutes, then reinverted and air-dried for an additional 10 minutes. The cells were lysed in 25 μl of 0.25 N NaOH solution (4° C.), placed on a shake table and vigorously shaken for 5 minutes. After cell lysis, 75 μl of scintillation cocktail was added to each well and the plates were sealed with film tape. The plates were returned to the shake table and vigorously shaken for a minimum of 10 minutes to ensure adequate partitioning of organic and aqueous solutions. The plates were counted in a Wallac Microbeta counter (PerkinElmer) to collect the raw cpm data.
# For each experiment, a data stream of cpm values collected from the Wallac Microbeta counter was downloaded to a Microsoft Excel statistical application program. Calculations of EC50 values were made using the transformed-both-sides logistic dose response program written by Wyeth Biometrics Department. The statistical program uses mean cpm values from wells representing maximum binding or uptake (assay buffer) and mean cpm values from wells representing minimum binding or uptake ((1 μM desipramine (hNET) or 1 μM paroxetine (hSERT)). Estimation of the EC50 value was completed on a log scale and the line was fit between the maximum and minimum binding or uptake values. All graphic data representation was generated by normalizing each data point to a mean percent based on the maximum and minimum binding or uptake values. The EC50 values reported from multiple experiments were calculated by pooling the raw data from each experiment and analyzing the pooled data as one experiment.
# T1 sequence (P23975 whole entry): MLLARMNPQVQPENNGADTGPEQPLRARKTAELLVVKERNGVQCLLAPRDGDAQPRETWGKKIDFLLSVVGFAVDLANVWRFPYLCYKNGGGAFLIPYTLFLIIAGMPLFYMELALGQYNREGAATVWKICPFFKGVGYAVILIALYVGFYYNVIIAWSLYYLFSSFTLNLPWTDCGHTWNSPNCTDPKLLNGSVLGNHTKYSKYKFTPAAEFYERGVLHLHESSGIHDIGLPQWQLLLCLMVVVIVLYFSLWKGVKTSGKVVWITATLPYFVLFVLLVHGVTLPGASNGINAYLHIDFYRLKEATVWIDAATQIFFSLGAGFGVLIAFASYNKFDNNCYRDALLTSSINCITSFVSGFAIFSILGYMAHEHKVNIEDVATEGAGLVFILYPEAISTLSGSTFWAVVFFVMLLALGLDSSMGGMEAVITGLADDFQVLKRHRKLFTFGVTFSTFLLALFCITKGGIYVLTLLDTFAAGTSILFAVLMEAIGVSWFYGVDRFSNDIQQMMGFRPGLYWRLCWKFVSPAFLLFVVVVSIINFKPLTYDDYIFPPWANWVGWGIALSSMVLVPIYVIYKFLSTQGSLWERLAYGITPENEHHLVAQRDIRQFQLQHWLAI
row,SMILES,inhibition at 1 µM
1,"CN1CCN(CC(c2cccc(Cl)c2)C2(O)CCC3CCCCC3C2)CC1 (centres unmarked) [Example 332, 2-[1-(3-chlorophenyl)-2-(4-methypiperazin-1-yl)ethyl]decahydronaphthalen-2-ol dihydrochloride]",41%
2,"CC1CCC(O)(C(CN2CCNCC2)c2cccc(Cl)c2)CC1 (centres unmarked) [Example 334, 1-[1-(3-chlorophenyl)-2-piperazin-1-ylethyl]-4-methylcyclohexanol dihydrochloride]",71.7%
3,"CC1CCC(O)(C(CN2CCN(C)CC2)c2cccc(Cl)c2)CC1 (centres unmarked) [Example 335, 1-[1-(3-chlorophenyl)-2-(4-methylpiperazin-1-yl)ethyl]-4-methylcyclohexanol dihydrochloride]",49.5%
4,"CCC1CCC(O)(C(CN2CCN(C)CC2)c2cccc(Cl)c2)CC1 (centres unmarked) [Example 336, 1-[1-(3-chlorophenyl)-2-(4-methylpiperazin-1-yl)ethyl]-4-ethylcyclohexanol dihydrochloride]",29%

# Target: T1, human hNET
# Test: as above
# Assay type: cell-based
# Conditions: at 30 μM test compound, [3H]NE uptake
row,SMILES,inhibition at 30 µM
1,"CC1(C)CC(C)(C)CC(O)(C(CN2CCNCC2)c2cccc(Br)c2)C1 (centres unmarked) [Example 87, 1-[1-(3-bromophenyl)-2-piperazin-1-ylethyl]-3,3,5,5-tetramethylcyclohexanol dihydrochloride]",47%
2,"CCC(O)(CC)C(CN1CCN(C)CC1)c1cccc(Cl)c1 (centres unmarked) [Example 94, 2-(3-chlorophenyl)-3-ethyl-1-(4-methylpiperazin-1-yl)pentan-3-ol dihydrochloride]",71%
3,"CC(C)(C)C1CCC(O)(C(CN2CCNCC2)c2cccc(Br)c2)CC1 (centres unmarked) [Example 96, 1-[1-(3-bromophenyl)-2-piperazin-1-ylethyl]-4-tert-butylcyclohexanol dihydrochloride]",100%
4,"CN1CCN(CC(c2cccc(Cl)c2)C2(O)CCC(C(C)(C)C)CC2)CC1 (centres unmarked) [Example 101, 4-tert-butyl-1-[1-(3-chlorophenyl)-2-(4-methylpiperazin-1-yl)ethyl]cyclohexanol dihydrochloride]",100%
5,"OC1(C(CN2CCNCC2)c2cccc(Br)c2)CCOCC1 (centres unmarked) [Example 103, 4-[1-(3-bromophenyl)-2-piperazin-1-ylethyl]tetrahydro-2H-pyran-4-ol dihydrochloride]",69%
6,"OC1(C(CN2CCNCC2)c2cccc(Br)c2)C2CC3CC(C2)CC1C3 (centres unmarked) [Example 107, 2-[1-(3-bromophenyl)-2-piperazin-1-ylethyl]adamantan-2-ol dihydrochloride]",67%
7,"COc1ccc(C(CN2CCNCC2)C2(O)CCOCC2)cc1Br (centres unmarked) [Example 110, 4-[1-(3-bromo-4-methoxyphenyl)-2-piperazin-1-ylethyl]tetrahydro-2H-pyran-4-ol dihydrochloride]",54%
